Laboratory results from US20060039883A1, “Biologically active compounds for the modification of bodily odours” (priority 2002, published 2006).

Assays:
human beings = assay: Odour evaluation of paired aqueous solutions by test persons (similar or different); assay type: in vivo; details: 0.5 mM in phosphate buffered saline
Experimental: Several individuals were asked to evaluate the odour of a number of aqueous solutions. A prototypical MHC class I peptide (SLLPAIVEL), a known ligand of the A′02xx allele, or an equimolar mixture of the corresponding amino acids (S, L, P, A, I, V, E) were added to solvent (phosphate buffered saline) at final concentrations of 0.5 mM. These solutions were offered in pairs and the test persons were asked to decide whether the two solutions smelled similar or different. The probands easily distinguish peptides from amino acids.

female sticklebacks = assay: Flow channel odour preference / mate choice experiment with sticklebacks; assay type: in vivo, Gasterosteus aculeatus
Experimental: The source of sticklebacks has been described (7). The flow channel set-up to evaluate mate choice determines odour preference, as a precursor of mate choice. Water was taken from the tank of a single male per trial and used both as stimulus (after addition of peptide(s)) and control (after addition of solvent) water. Peptides were added to the bottle with stimulus water just before the experiment at a final concentration of 1 mM; this becomes diluted to 5 nM in the water column passing through the test compartment. The following nona-peptides were used, MHC specificities indicated in brackets: […] (H2-K^b); […] and AAPDNRETF (H2-D^b); SYFPEITHI and SYIPSAEKI (H2-K^d). Peptides were synthesized by solid-phase 9-fluorenylmethoxycarbonyl chemistry. In experiments using a single peptide, AAPDNRETF was used. All experiments were performed in double-blinded fashion as described. Statistical analysis was performed with JMP 4.
The binding preferences for peptides of MHC molecules of sticklebacks are unknown; therefore synthetic peptides derived from endogenous mouse and viral proteins that are ligands for different mouse MHC molecules were used. Such peptides almost certainly appear foreign to sticklebacks irrespective of their MHC genotypes. Gravid females prefer water from a tank harbouring a male to that from a tank with fresh water (Experiment A, Table 1). Therefore, it was tested whether addition of peptide(s) to water from individual males would alter the outcome of mate choice. Gravid females were presented with water from single males with and without the addition of a mixture of five different peptides in the two columns of a flow-channel.

[1] = Test pair Peptide vs. Amino acids

| Sequence | Probands scoring difference (human beings; [1]) | Probands scoring difference (fraction) (human beings; [1]) | Probands scoring difference (human beings; Test pair Peptide vs. Peptide) | Probands scoring difference (fraction) (human beings; Test pair Peptide vs. Peptide) | Time spent on side of water source 2 (female sticklebacks; Experiment B, gravid females, Fresh + 1 peptide vs Fresh + solvent, 5 nM in water column, n=24) [s] | Attractiveness of peptide in plain tank water (in words) (female sticklebacks; Experiment B, gravid females, plain tank water) | Time spent on side of water source 2 (female sticklebacks; Experiment C, gravid females, Male + 1 peptide vs Male + solvent, 5 nM, n=25) [s] | Time spent on side of water source 2 (female sticklebacks; Experiment C, gravid females, Male + 1 peptide vs Male + solvent, 5 nM, n=25, listed as one peptide) [s] | Time spent on side of water source 2 (female sticklebacks; Experiment E, non-gravid females, Male + 1 peptide vs Male + solvent, 5 nM, n=25) [s] | Preference for male water with vs without peptide (in words) (female sticklebacks; Experiment E, non-gravid fish, male water) | Excess time spent on the side of peptide-supplemented male water (female sticklebacks; gravid females, male water, excess over 300 sec) [s] |
| --- | --- | --- | --- | --- | --- | --- | --- | --- | --- | --- | --- |
| SLLPAIVEL [Peptide, prototypical MHC class I peptide, known ligand of the A*02xx allele] | 13/14 | (0.93) | 1/14 | (0.07) |  |  |  |  |  |  |  |
| AAPDNRETF [1 peptide, synthetic nona-peptide, H2-D^b ligand; used in experiments using a single peptide] |  |  |  |  | 291.8 ± 24.6 | not attractive | 327.7 ± 24.8 | 327.7 ± 24.8 | 308.1 ± 23.5 | no preference was observed | 27.7 ± 12.4 |
